Legend:
[1] = tested on: HCT116 cells; test: Screen 2: metabolic profiling with unlabeled amino acids (LC-MS); type: cell-based, human; conditions: 0.5, 1, 2 mM, dose-dependent, 6 hours
Method: Media was changed to QMAP plus individual amino acid treatments at the start of the experiment. 200 mM amino acid stocks were used to make the QMAP+individual amino acid treatment medias that were placed in the tissue culture incubator for 30-45 minutes prior to the start of the dosing for equilibration of media bicarbonate with incubator CO2. For metabolomic profiling experiments, cells were treated with additional amino acid doses of 0.5, 1 and 2 mM, and 1 mM was used for stable isotope tracing experiments. To minimize systematic error, each amino acid dose was added as a batch (20 amino acids+vehicle control) such that each well of each plate contained a different amino acid. The process was repeated for the other two concentrations of amino acids on the next plates to make set. This was repeated four more times to achieve the sample size of 5 replicates for each of the 3 doses of amino acids. Each plate was then incubated for 6 hours in the tissue culture incubator before being rapidly washed twice with sterile water and snap frozen on liquid nitrogen before being stored at −80° C. The next day, the plates were lyophilized for 90 minutes and then stored at −80° C.
Extraction buffer was prepared by adding 2:2:1 methanol: acetonitrile: water. For profiling, the following internal standards (Cambridge Isotope Laboratories) were added at 1 μg/mL each: L-Valine-D8, L-Aspartate (^13C4, D3, ^15N) and Succinate (13C4D4). 6-well plates were removed from storage at −80° C. and 1 ml of ice-cold extraction buffer was added. Plates were incubated at −20° C. for 5 minutes, scraped, transferred to microcentrifuge tubes and frozen in liquid nitrogen. Tubes were then placed into a sonicating water bath for 10 minutes and rotated at −20° C. for 1 hour before being centrifuged at 4° C. for 10 minutes at 21,000×g. […] of extract was dried down completely using a speed-vacuum (˜90 min), dissolved in […] of acetonitrile: water (1:1), vortexed for 10 min, and stored overnight at −20° C. to allow protein precipitation. Samples were then centrifuged at 4° C. for 10 minutes at 21,000×g and the supernatants were transferred into autosampler vials for analysis. For the QCs, […] of each extract was pooled, at the step prior to drying down, mixed and dried in […] amounts alongside the samples. Once dried, QCs were processed with the samples but recombined prior to being aliquoted into autosampler vials. All samples were then frozen at −80° C., and only one set of samples, which included a QC aliquot, was thawed, vortexed and placed into the instrument.
The sheath gas flow was set to 40 units, the auxiliary gas flow was set to 15 units and the sweep gas flow was set to 1 unit. […] For tracing, […] of sample was injected twice in either positive or negative mode to maximize detection efficiency and minimize metabolite crowding using the Sim-mode.
LC-MS data was processed using the Thermo Scientific TraceFinder 5.1 software.
The three cell lines were then treated with 0.5, 1, and 2 mM of individual, unlabeled amino acids, and metabolic profiling was performed to determine how individual amino acids quantitatively altered metabolite abundance (Screen 2).

[2] = tested on: HCT15 cells; test: Crystal Violet Cell Cytotoxicity Assay; type: cell-based; conditions: Homo sapiens, HCT-15; 2 mM, 48 hours, QMAP, compared to QMAP only; read-out: decrease in cell viability
Method: HCT15 cells were plated in 1:1 DMEM: QMAP media on a clear 96-well plate. After 18 hours, cells were treated with 200 μl of QMAP (CTRL) or QMAP plus an amino acid (2 mM). Cells were then grown for 48 hours, followed by a live/dead assay using the Crystal Violet Cell Cytotoxicity Assay Kit (BioVision, #K329) according to the manufacturer's directions. Briefly, cells were washed with 200 μl of 1× washing solution and incubated in 50 μl of crystal violet staining solution for 20 minutes. Cells were washed four times with 200 μl of 1× washing solution to remove dead cells. Cells were then incubated in 100 μl of solubilization solution for 20 minutes, and absorbance was measured at 595 nm.
An amino acid screen of all 20 essential and non-essential amino acids was performed to assess the differential effects of amino acids on cancer cell proliferation. Because commercially available cell culture media such as DMEM or RPMI contain variable concentrations of amino acids, a chemically defined, custom minimal media was designed containing all amino acids present at 0.3 mM, referred to as QMAP. HCT15 cells, a colon cancer cell line, were plated in 50:50 DMEM: QMAP and left to attach overnight. […] After 48 hours, cell proliferation was measured by crystal violet dye, which binds to ribose-like molecules such as DNA and assumes dead cells become unattached and are washed away.

[3] = tested on: U2OS; test: CellTiter-Glo Luminescent Cell Viability Assay; type: cell-based, human; conditions: 2 mM, 24 hours, DMEM
Method: (§1) HT29, 293T, U2OS, and 3T3-LI cells were plated on an opaque 96-well plate in 1:1 DMEM. […] At the appropriate time point, 100 μl of CellTiter-Glo reagent (Promega #G7570) was added to each well. The plate was gently mixed for 2 minutes to induce lysis, incubated at room-temperature for 10 minutes, and then luminescence was measured.
To test whether tryptophan inhibition of growth applied to other cell lines and persisted in conventional cell culture media, two human cancer cell lines (HT29, U2OS), a transformed human embryonic kidney cell line (293T), and a mouse, fibroblast-like cell line (3T3-L1) were grown in DMEM for 24 hours and then treated with 2 mM tryptophan or vehicle. […]

[4] = tested on: 3T3-L1; test: CellTiter-Glo Luminescent Cell Viability Assay; type: cell-based, mouse; conditions: 2 mM, 24 hours, DMEM
Method: as §1
(§2) To test whether tryptophan inhibition of growth applied to other cell lines and persisted in conventional cell culture media, two human cancer cell lines (HT29, U2OS), a transformed human embryonic kidney cell line (293T), and a mouse, fibroblast-like cell line (3T3-L1) were grown in DMEM for 24 hours and then treated with 2 mM tryptophan or vehicle. After 24 hours, cells were assayed by CellTiter-Glo, which indicates cell viability by measuring ATP production.

[5] = tested on: HT29; test: CellTiter-Glo Luminescent Cell Viability Assay; type: cell-based, human; conditions: 2 mM, 24 hours, DMEM
Method: as §1, §2

[6] = tested on: 293T; test: CellTiter-Glo Luminescent Cell Viability Assay; type: cell-based, human; conditions: 2 mM, 24 hours, DMEM
Method: as §1, §2

SMILES: N[C@@H](Cc1c[nH]c2ccccc12)C(=O)O [tryptophan, L-tryptophan]
- distal TCA cycle metabolite levels (alpha-ketoglutarate to malate) [1]: decreased
- glutamine levels [1]: increased
- cytotoxicity at 2000 µM [2]: ~50%
- cell viability compared to vehicle [3]: significant decreases
- cell viability compared to vehicle [4]: significant decreases
- cell viability compared to vehicle [5]: significant decreases
- cell viability compared to vehicle [6]: significant decreases
